Data: the supplement of paper PMC10307832

Assays:
Test in all cases: relative viability (nuclei count vs DMSO), 5 days (fraction); higher = more cells survive
[1] = compound: O[C@@H](COc1cccc2ncccc12)CN1CCN([C@@H]2c3ccccc3[C@@H]3[C@H](c4ccccc42)C3(F)F)CC1 [Zosuquidar] + N=C(N)NC(=N)NCCc1ccccc1 [Phenformin] (partner 250 µM)
Procedure, shortened: (§1)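 Dosing by pin tool came one day after lung cancer cell lines were seeded in 1536-well plates, using either one drug or a fixed anchor-drug dose plus five library-drug doses (not always all listed) in √10 steps. After 5 days, nuclei were counted on 4× images. Relative viability is treated-well nuclei count divided by vehicle-well nuclei count, and values are medians of duplicate plates.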

[2] = compound: O[C@@H](COc1cccc2ncccc12)CN1CCN([C@@H]2c3ccccc3[C@@H]3[C@H](c4ccccc42)C3(F)F)CC1 [Zosuquidar] + CS(=O)(=O)CCNCc1ccc(-c2ccc3ncnc(Nc4ccc(OCc5cccc(F)c5)c(Cl)c4)c3c2)o1 [Lapatinib] (partner 2 µM)
Procedure, shortened: as §1

[3] = compound: COc1cc2nccc(Oc3ccc(NC(=O)C4(C(=O)Nc5ccc(F)cc5)CC4)cc3)c2cc1OC [Cabozantinib] + Cc1nc(Nc2ncc(C(=O)Nc3c(C)cccc3Cl)s2)cc(N2CCN(CCO)CC2)n1 [Dasatinib] (partner 0.075 µM)
Procedure, shortened: as §1

[4] = compound: C1=CC(=CC=C1NC(=S)NNC2=C(C=C(C=C2[N+](=O)[O-])C(F)(F)F)[N+](=O)[O-])F [Kobe2602] + Cc1nc(Nc2ncc(C(=O)Nc3c(C)cccc3Cl)s2)cc(N2CCN(CCO)CC2)n1 [Dasatinib] (partner 0.075 µM)
Procedure, shortened: as §1

Row | Cell Line | relative viability ([1]; first compound 0.01 µM) | relative viability ([1]; first compound 0.03162 µM) | relative viability ([1]; first compound 0.1 µM) | relative viability ([1]; first compound 0.3162 µM) | relative viability ([1]; first compound 1 µM) | relative viability ([2]; first compound 0.01 µM) | relative viability ([2]; first compound 0.03162 µM) | relative viability ([2]; first compound 0.1 µM) | relative viability ([2]; first compound 0.3162 µM) | relative viability ([2]; first compound 1 µM) | relative viability ([3]; first compound 0.02 µM) | relative viability ([3]; first compound 0.06325 µM) | relative viability ([3]; first compound 0.2 µM) | relative viability ([3]; first compound 0.6325 µM) | relative viability ([3]; first compound 2 µM) | relative viability ([4]; first compound 0.2 µM) | relative viability ([4]; first compound 0.6325 µM) | relative viability ([4]; first compound 6.325 µM) | relative viability ([4]; first compound 20 µM) | relative viability ([4]; first compound 2 µM)
1 | ABC-1 | 0.253 | 0.257 | 0.252 | 0.256 | 0.266 | 1.17 | 1.14 | 1.24 | 1.19 | 1.05 | 0.515 | 0.567 | 0.596 | 0.55 | 0.525 | 0.615 | 0.568 | 0.769 | 0.47 | 
2 | NCI-H1395 | 0.44 | 0.482 | 0.418 | 0.497 | 0.466 | 1.03 | 0.903 | 0.957 | 1.54 | 1.04 | 0.363 | 0.473 | 0.423 | 0.458 | 0.37 | 0.468 | 0.456 | 0.442 | 0.442 | 0.452
3 | NCI-H2085 | 0.736 | 0.682 | 0.479 | 0.877 | 0.69 | 0.796 | 0.754 | 0.475 | 0.826 | 0.778 | 0.285 | 0.268 | 0.244 | 0.218 | 0.216 | 0.262 | 0.261 | 0.238 | 0.23 | 0.24
4 | NCI-H661 | 0.267 | 0.254 | 0.275 | 0.275 | 0.27 | 0.6 | 0.423 | 0.399 | 0.639 | 0.559 | 0.732 | 0.838 | 0.724 | 0.767 | 0.772 | 0.799 | 1.09 | 0.847 | 0.758 | 0.904
5 | NCI-H1944 | 0.19 | 0.192 | 0.196 | 0.225 | 0.196 | 0.822 | 0.797 | 0.585 | 0.925 | 0.794 | 0.183 | 0.233 | 0.206 | 0.221 | 0.216 | 0.255 | 0.223 | 0.213 | 0.245 | 0.233
6 | NCI-H2170 | 0.388 | 0.463 | 0.393 | 0.395 | 0.445 | 0.256 | 0.282 | 0.256 | 0.308 | 0.283 | 0.622 | 0.57 | 0.373 | 0.542 | 0.591 | 0.632 | 0.544 | 0.558 | 0.592 | 0.496
7 | NCI-H322M | 0.809 | 0.856 | 0.586 | 0.793 | 0.858 | 0.552 | 0.63 | 0.417 | 0.582 | 0.567 | 0.259 | 0.271 | 0.238 | 0.264 | 0.26 | 0.254 | 0.25 | 0.241 | 0.297 | 0.245
8 | NCI-H647 | 0.531 | 0.39 | 0.453 | 0.592 | 0.462 | 1.04 | 1.13 | 1.03 | 1.13 | 1.14 | 0.281 | 0.17 | 0.201 | 0.147 | 0.136 | 0.244 | 0.338 | 0.17 | 0.2 | 0.158
9 | NCI-H1792 | 0.35 | 0.287 | 0.279 | 0.31 | 0.295 | 0.9 | 0.893 | 0.837 | 0.839 | 0.795 |  | 0.878 | 0.77 | 0.727 | 0.644 | 0.691 | 0.949 | 0.85 | 0.787 | 0.894
10 | LK-2 | 0.413 | 0.412 | 0.549 | 0.67 | 0.475 | 0.985 | 0.892 | 0.923 | 1.18 | 0.946 |  | 0.247 |  | 0.341 | 0.46 | 0.377 | 0.35 | 0.274 | 0.342 | 0.319
11 | NCI-H1755 | 0.425 | 0.621 | 0.489 | 0.624 | 0.589 | 1 | 0.946 | 0.951 | 1.04 | 1.08 | 0.299 | 0.479 | 0.396 | 0.313 | 0.239 | 0.408 | 0.407 | 0.408 | 0.437 | 0.359
12 | EPLC-272H | 0.344 | 0.288 | 0.287 | 0.241 | 0.301 | 0.916 | 0.97 | 0.876 | 1.01 | 1 | 0.245 | 0.403 | 0.26 | 0.26 | 0.285 | 0.387 | 0.387 | 0.331 | 0.355 | 0.303
13 | NCI-H2228 | 0.291 | 0.338 | 0.256 | 0.47 | 0.257 | 1.2 | 0.937 | 0.956 | 1.06 | 1.21 | 0.531 | 0.624 | 0.471 | 0.472 | 0.55 | 0.415 | 0.549 | 0.502 | 0.529 | 0.504
